Structures can show the parent of a compound that is named as a salt. Where two headings read alike, the source gives them in different places.
Experiments:
[1] = biological target: T1, NMDA receptor (Rattus norvegicus, UniProt P35439); experiment: Patch clamp, inward currents to NMDA in cultured superior colliculus neurones; type: cell-based; conditions: NMDA 200 μM, glycine 1 μM
T1 construct: endogenous in cells
Procedure: Cells were mechanically dissociated in 0.05% DNAase / 0.3% ovomucoid (Sigma) following a 15 minute pre-incubation with 0.66% trypsin / 0.1% DNAase (Sigma). The dissociated cells were then centrifuged at 18G for 10 minutes, resuspended in minimum essential medium (Gibco) and plated at a density of 200,000 cells cm onto poly-L-lysine (Sigma)-precoated plastic petri dishes (Falcon). The cells were nourished with NaHCO3 /HEPES-buffered minimum essential medium supplemented with 5% foetal calf serum and 5% horse serum (Gibco) and incubated at 37° C. with 5%CO2 at 95% humidity. The medium was exchanged completely following inhibition of further glial mitosis with cytosine-β-D-arabinofuranoside (20 μM Sigma) after about 7 days in vitro. Thereafter the medium was exchanged partially twice weekly. […] Moreover, the relatively small neurones (soma 15-20 μm .phi.) are ideally suited to minimise problems of buffered diffusion for concentration clamp experiments.
Patch clamp recordings were made from these neurones with polished glass electrodes (4-6 m.OMEGA.) in the whole cell mode at room temperature (20°-22° C.) with the aid of an EPC-7 amplifier (List). Test substances were applied by switching channels of a custom made fast superfusion system with a common outflow (10-20 ms exchange times). The contents of the intracellular solution were as follows (mM): CsCl (120), TEACl (20), EGTA (10), MgCl2 (1), CaCl2 (0.2), glucose (10), ATP (2), cAMP (0.25); pH was adjusted to 7.3 with CsOH or HCl. The extracellular solutions had the following basic composition (mM): NaCl (140), KCl (3), CaCl2 (0.2), glucose (10), HEPES (10), sucrose (4.5), tetrodotoxin (TTX 3*10-4). For most experiments glycine (1 μM) was present in all solutions. Experiments to test the glycine-dependence of the tricyclic "pyrido-phtalazin diones" were performed in the continuous presence of increasing concentrations of glycine (1-10 μM).
This effect was mediated at the glycineB site as evidenced by the parallel shift in the concentration-response curves in the presence of increasing glycine concentrations. Thus the Kbs of Mrz 2/502 as assessed according to the Cheng-Prusoff relationship were similar in glycine 1, 3 and 10 μM (80, 124 and 118 nM respectively). […] Choline derivatives had similar potencies to the free acids in vitro (Table14b).

[2] = biological target: T2, NMDA receptor (Mus musculus, UniProt P35438); experiment: NMDA-induced convulsions / lethality test; type: in vivo; conditions: ip, 0.25 h, i.p., 15 min before induction, read-out: NMDA ID50
T2 construct: from tissue; host or cells: living mice (albino Swiss males for NMDA and PTZ tests, NMR females for MES)
Procedure: (§1) To assess NMDA receptor antagonistic properties of the tested agents by assessing anticonvulsive effects. Additionally the role of organic acid transporters in the elimination from the brain of tested agents was assessed by using an inhibitor, Probenicid, on the duration of anticonvulsive activity.
(§2) Male albino Swiss mice (19-21 g) housed 10-15 per cage were used for the NMDA lethality test (Leander et al., 1988). For pentylenetetrazol (PTZ)-induced convulsions male albino Swiss mice (25-34 g.) housed 40 per cage (58×38×20 cm) were used while in the maximal electroshock (MES) and motor impairment tests NMR female mice (18-28 g) housed 5 per cage were employed. All animals were kept with water and food ad libittum under a 12-h light-dark cycle (light on at 6 a.m.), and at a controlled temperature (20°±0.5° C.). All experiments were performed between 10 a.m. and 5 p.m. Tested agents were injected 15 min. i.p before the induction of convulsions if not stated otherwise (see below). Mrz 2/502 was dissolved in saline added with NaOH. Most other agents were dissolved in the following solution: 0.606 g Tris; 5.0 g. glucose; 0.5 g. Tween 80; and 95 ml water. The choline and tetramethylammonium salts were dissolved in distilled water.
In the NMDA-induced convulsions test in mice, a dose-response relationship for NMDA was first performed to determine the ED97 dose which was then used for testing of antagonistic properties. After injection of the ED97 dose of NMDA the animals were placed in a small cage (20×28×14 cm) and observed for 20 min. Death preceded by clonic convulsions and by tonic seizures was the pharmacological end-point.

[3] = biological target: T2, NMDA receptor; experiment: Pentylenetetrazol (PTZ)-induced convulsions; type: in vivo; conditions: ip, 0.25 h, i.p., PTZ 90 mg/kg i.p., read-out: PTZ ID50
Procedure: as §1, §2
Pentylenetetrazol was injected at a dose of 90 mg/kg (i.p). The presence of general tonic convulsions was then scored for 30 min as this parameter is more sensitive to NMDA receptor antagonists than clonic convulsions. The pharmacological end-point was taken as the presence of tonus in the hind limbs with stretching.

[4] = biological target: T2, NMDA receptor; experiment: Maximal electroshock (MES)-induced tonic convulsions; type: in vivo; conditions: i.p.; for ED50: mouse, ip, 0.25 h, read-out: MES ID50; for ED50 / MES ID50: 15 min before induction
Procedure: as §1, §2
(§3) MES (100 Hz, 0.5 sec shock duration, 50 mA shock intensity, 0.9 ms impulse duration, Ugo Basile) was applied through corneal electrodes. The presence of tonic convulsions was scored (tonic extension of hind paws with minimum angle to the body of 90°). In an additional experiment mice were injected with Probenicid (200 mg/kg) 30 min before administration of the tested agents to assess the role of organic acid transport in elimination (duration of action). The aim was to obtain ED50 s for all parameters scored using the Litchfield Wilcoxon (1949) test for quantal dose responses.

[5] = tested on: AMPA; experiment: Microelectrophoretic application of AMPA to spinal neurones in vivo; conditions: i.v., responses of single rat spinal neurones
Procedure: (§4) The ability of these glycineB antagonists to act as NMDA receptor antagonists in vivo was assessed using i.v. administration against responses of single neurones in the rat spinal cord to microelectrophoretic application of AMPA and NMDA.

[6] = biological target: T1, NMDA receptor; experiment: Microelectrophoretic application of NMDA to spinal neurones in vivo; conditions: rat, iv, responses of single rat spinal neurones; read-out: Microelectrophoretic NMDA ID50
Procedure: as §4

[7] = tested on: organic acid transport; experiment: Duration of anticonvulsive action with and without probenecid; type: in vivo, mouse; conditions: listed as 2/570
Procedure: as §1, §2, §3
Moreover it seems that choline salts have a longer duration of action. Probenecid injection prolonged considerably the duration of anticonvulsive action of all agents tested. For example the half lives of 2/514 and 2/570 were around 40 and 80 minutes respectively in the absence of probenicid. In the presence of probenicid the half lives were prolonged to around 180 and 210 minutes respectively. Thus, it seems that organic acids transport in the choroid plexus out of the brain plays an important role in the short duration of action of the compounds tested..

[8] = biological target: T3, glycineB site of the NMDA receptor (rat cortical membranes) (Rattus norvegicus, UniProt P35439); experiment: [3H]5,7-DCKA binding assay; conditions: 10 nM [3H]5,7-DCKA
T3 construct: The cortex was dissected and homogenised in 20 volumes of ice-cold 0.32M sucrose; from tissue; host or cells: brain cortex membranes of male Sprague-Dawley rats
Procedure: Tissue preparation was performed according to Foster and Wong (1987). Male Sprague-Dawley rats (200-250g) were decapitated and their brains were removed rapidly. The cortex was dissected and homogenised in 20 volumes of ice-cold 0.32M sucrose using a glass-Teflon homogenizer. The homogenate was centrifuged at 1000×g for 10 min. The pellet was discarded and the supernatant centrifuged at 20,000×g for 20 min. The resulting pellet was resuspended in 20 volumes of distilled water and centrifuged for 20 min at 8000×g. Then the supernatant and the buffy coat were centrifuged three times (48,000× g for 20 min) in the presence of 5 mM Tris-HCl, pH 7.4. All centrifugation steps were carried out at 4° C. After resuspension in 5 volumes of 5 mM Tris-HCl, pH 7.4 the membrane suspension was frozen rapidly at -80° C. until the day of assay. On the day of assay the membranes were thawed and washed four times by resuspension in 5 mM Tris-HCl, pH 7.4 and centrifugation at 48,000× g for 20 min. The final pellet was suspended in assay buffer.
The amount of protein in the final membrane preparation was determined according to the method of Lowry (1951) with some modifications (Hartfree, 1972). 50 μl of Protein samples (in triplicates) were diluted to 1 ml with distilled water and treated with 0.9 ml of a solution containing 2 g potassium sodium tartrate and 10 g Na2 CO3 in 500 ml 1N NaOH and 500ml water. Blank and standard (with bovine serum albumin) were set up in the same way. The tubes were placed in a water bath at 50° C. for 10 min. and cooled at room temperature. 100 μl of a solution containing 2 g potassium sodium tartrate and 1 g CuSO4 x 5 H2 O in 90 ml water and 10 ml 1N NaOH were added. The samples were left at room temperature for at least 10 min., then 3 ml of Folin-Ciocalteu reagent (1 ml of reagent diluted with 15 ml water) was added rapidly during mixing. The tubes were again heated at 50° C. for 10 min. and cooled to room temperature. Absorbencies were then read in 1 cm cuvets at 650 nm. The final protein concentration used for our studies was between 100 and 250 μg/ml.
Incubation in both binding assays was terminated using a Millipore filter system. The samples, all in triplicate, were rinsed three times with 2.5 ml ice cold assay buffer over glass fibre filters obtained from Schleicher & Schuell under a constant vacuum. Following separation and rinse the filters were placed into scintillation liquid (5 ml; Ultima Gold) and radioactivity retained on the filters was determined by using conventional liquid scintillation counter (Hewlett Packard, Liquid Scintillation Analyser). `Total binding` was the absolute amount of radioligand bound in the absence of any additives whereas `non-specific` binding was determined in the presence of a high concentration of competitor.
[^3 H]5,7-DCKA binding assay
Experiments were performed according to the methods modified from previous groups (Canton et al., 1991; Yoneda et al., 1993). Membranes were suspended and incubated in 10 mM Tris-HCl, pH 7.4. Incubation time was 45 min at 4° C. Non-specific binding of [^3 H]5,7-DCKA was defined by the addition of unlabeled glycine at 0.1 mM. The stop-solution contained 10 mM Tris-HCl and 10 mM magnesium sulphate, pH 7.4. Filtration was performed as rapidly as possible. Displacement experiments were performed with a fixed [^3 H]5,7-DCKA concentration of 10 nM. Test compounds were diluted in water or DMSO and added in at least 5 different concentrations.

[9] = In vivo systemic and / or CNS availability
[10] = peak currents, read-out: Peak NMDA IC50
[11] = plateau (steady-state) currents, read-out: Plateau NMDA IC50

Compound	IC50 [1, 10]	IC50 [1, 11]	ED50 [2]	ED50 [3]	ED50 [4]	Microelectrophoretic AMPA ID50 [5]	ED50 [6]	half life of anticonvulsive action ([7]; absence of probenecid)	half life of anticonvulsive action ([7]; presence of probenecid 200 mg/kg, 30 min before)	MES ID50 ([4]; listed as 570, 15 min)	IC50 [8]	in vivo systemic and / or CNS availability versus associated class I compounds [9]	activity in the MES test [4]	MES ID50 ([4]; listed as 499, 15 min)
O=c1[nH][nH]c(=O)c2nc3cc(Cl)c(Br)cc3cc12 [Mrz 2/539]	5.3 µM	0.7 µM	> 100 mg/kg	> 100 mg/kg	> 60 mg/kg	–	–	–	–	–	–	–	–	–
O=c1[nH]nc(O)c2c1cc1cc(Br)ccc1[n+]2[O-] [Mrz 2/570, 8-bromo-4-hydroxy-1-oxo-1,2-dihydropyridazino[4,5-b]-quinoline 5-oxide choline salt]	0.6 µM	0.1 µM	–	–	–	> 16.0 mg/kg	4.5 mg/kg	~1.33 h	~3.5 h	12.8 mg/kg	–	–	–	–
O=c1[nH][nH]c(=O)c2nc3cc(Br)c(Cl)cc3cc12 [Mrz 2/538]	93.9 µM	2.5 µM	106 mg/kg	> 100 mg/kg	> 60 mg/kg	–	–	–	–	–	–	–	–	–
O=c1[nH]nc(O)c2c1cc1ccccc1[n+]2[O-] [Mrz 2/499, 4-hydroxy-1-oxo-1,2-dihydro-pyridazino[4,5-b]-quinoline 5-oxide]	51.2 µM	13.8 µM	–	18.6 mg/kg	–	–	–	–	–	–	16 µM	much better	effective	87.0 mg/kg
O=c1[nH][nH]c(=O)c2nc3ccccc3cc12 [Mrz 2/585]	65.9 µM	19.1 µM	58.9 mg/kg	59 mg/kg	> 100 mg/kg	–	–	–	–	–	–	–	–	–

Reference: patent publication US5776935A, “Pyrido-phtalazin diones and their use against neurological disorders associated with excitotoxicity and malfunctioning of glutamatergic neurotransmission” (Merz & Co. GmbH & Co., priority 1996, dated 1998)
